In brackets after ≈: the same amount, converted by molar mass. Where two headings read alike, the source gives them in different places.
Key:
[1] = tested on: methicillin-sensitive Staphylococcus aureus; assay: MIC by broth micro-dilution (CLSI), methicillin-sensitive S. aureus; assay type: cell-based; details: MSSA S. aureus ATCC29213
[2] = tested on: carbapenemase producing K. pneumoniae; assay: MIC by broth micro-dilution (CLSI), carbapenemase producing K. pneumoniae; assay type: cell-based, Klebsiella pneumoniae
[3] = tested on: extended spectrum β lactamase (ESBL) SHV18 producing Klebsiella pneumoniae; assay: MIC by broth micro-dilution (CLSI), ESBL SHV18 producing K. pneumoniae; assay type: cell-based; details: ESBL +ve (SHV-18) K. pneumoniae ATCC700603
[4] = tested on: carbapenem sensitive Pseudomonas aeruginosa; assay: MIC by broth micro-dilution (CLSI), carbapenem sensitive P. aeruginosa; assay type: cell-based
[5] = tested on: carbapenem sensitive Escherichia coli; assay: MIC by broth micro-dilution (CLSI), carbapenem sensitive E. coli; assay type: cell-based
[6] = Staphylococcus aureus, ATCC 29213 / MSSA, read-out: MIC
[7] = Klebsiella pneumoniae, ATCCBAA1705, KPC-2 K. pneumoniae ATCC BAA-1705, read-out: MIC
[8] = Klebsiella pneumoniae, ATCC700603, 22 h, read-out: MIC
[9] = Pseudomonas aeruginosa, ATCC27853, Meropenem susceptible P. aeruginosa ATCC27853, read-out: MIC
[10] = Escherichia coli, ATCC25922, ESBL −ve E. coli ATCC25922, read-out: MIC

| SMILES | MIC [1, 6] [µg/mL] | MIC [2, 7] [µg/mL] | MIC [3, 8] [µg/mL] | MIC [4, 9] [µg/mL] | MIC [5, 10] [µg/mL] | MIC [1] [µg/mL] | MIC ([2]; KPC-2 K. pneumoniae ATCC BAA-1705) [µg/mL] | MIC [3] [µg/mL] | MIC ([4]; Meropenem susceptible P. aeruginosa ATCC27853) [µg/mL] | MIC ([5]; ESBL −ve E. coli ATCC25922) [µg/mL] |
| --- | --- | --- | --- | --- | --- | --- | --- | --- | --- | --- |
| CNCC(=O)N[C@H](C)[C@H]1C(=O)N2C(C(=O)O)=C(S[C@@H]3CN[C@H](C(=O)N4C[C@H](N)[C@@H](N)C4)C3)[C@H](C)[C@H]12 [Example 200] | 128 (≈ 251 µM) | 4 (≈ 7.85 µM) | 8 (≈ 15.7 µM) | 4 (≈ 7.85 µM) | 2 (≈ 3.92 µM) |  |  |  |  |  |
| C[C@@H](NS(C)(=O)=O)[C@H]1C(=O)N2C(C(=O)O)=C(S[C@@H]3CN[C@H](C(=O)N(CCN)CCO)C3)[C@H](C)[C@H]12 [Example 201] | 16 (≈ 30.8 µM) | 64 (≈ 123 µM) | 16 (≈ 30.8 µM) | 16 (≈ 30.8 µM) | 2 (≈ 3.85 µM) |  |  |  |  |  |
| CNCC(=O)N[C@H](C)[C@H]1C(=O)N2C(C(=O)O)=C(S[C@@H]3CN[C@H](C(=O)N(CCN)CCO)C3)[C@H](C)[C@H]12 [Example 202] | 64 (≈ 125 µM) | 16 (≈ 31.2 µM) | 64 (≈ 125 µM) | 8 (≈ 15.6 µM) | 4 (≈ 7.8 µM) |  |  |  |  |  |
| C[C@@H](NS(C)(=O)=O)[C@H]1C(=O)N2C(C(=O)O)=C(S[C@@H]3CN[C@H](C(=O)N4CC[C@@H](NS(N)(=O)=O)C4)C3)[C@H](C)[C@H]12 [Example 203] | 16 (≈ 27.6 µM) | 4 (≈ 6.89 µM) | 1 (≈ 1.72 µM) | 128 (≈ 220 µM) | 0.5 (≈ 0.861 µM) |  |  |  |  |  |
| C[C@@H](NS(=O)(=O)C(F)(F)F)[C@H]1C(=O)N2C(C(=O)O)=C(S[C@@H]3CN[C@H](C(=O)N4CC[C@@H](N)C4)C3)[C@H](C)[C@H]12 [Example 204] | 32 (≈ 57.6 µM) | > 128 | > 128 | > 128 | 8 (≈ 14.4 µM) |  |  |  |  |  |
| C[C@@H](NC(=O)[C@@H]1CCCN1)[C@H]1C(=O)N2C(C(=O)O)=C(S[C@@H]3CN[C@H](C(=O)N4CC[C@@H](N)C4)C3)[C@H](C)[C@H]12 [Example 205] | 32 (≈ 61.5 µM) | 4 (≈ 7.68 µM) | 2 (≈ 3.84 µM) | 8 (≈ 15.4 µM) | 1 (≈ 1.92 µM) |  |  |  |  |  |
| C[C@@H](NC(=O)[C@H]1CCCN1)[C@H]1C(=O)N2C(C(=O)O)=C(S[C@@H]3CN[C@H](C(=O)N4CC[C@@H](N)C4)C3)[C@H](C)[C@H]12 [Example 206] | 64 (≈ 123 µM) | 4 (≈ 7.68 µM) | 4 (≈ 7.68 µM) | 4 (≈ 7.68 µM) | 4 (≈ 7.68 µM) |  |  |  |  |  |
| C[C@H]([C@H]1C(=O)N2C(C(=O)O)=C(SC3CN[C@H](C(=O)N4CCNCC4)C3)[C@H](C)[C@H]12)n1cc(CF)nn1 (stereo partly drawn) [Example 207] | 2 (≈ 3.94 µM) | 8 (≈ 15.8 µM) | 8 (≈ 15.8 µM) | > 128 | 2 (≈ 3.94 µM) |  |  |  |  |  |
| CNCc1cn([C@H](C)[C@H]2C(=O)N3C(C(=O)O)=C(SC4CN[C@H](C(=O)N(C)C)C4)[C@H](C)[C@H]23)nn1 (stereo partly drawn) [Example 208] | 64 (≈ 134 µM) | 8 (≈ 16.8 µM) | 8 (≈ 16.8 µM) | > 128 | 4 (≈ 8.38 µM) |  |  |  |  |  |
| C[C@@H](NC(=O)C(F)F)[C@H]1C(=O)N2C(C(=O)O)=C(S[C@@H]3CN[C@H](C(=O)N4CC[C@@H](F)C4)C3)[C@H](C)[C@H]12 [Example 209] | 2 (≈ 3.96 µM) | 2 (≈ 3.96 µM) | 2 (≈ 3.96 µM) | 64 (≈ 127 µM) | 0.5 (≈ 0.991 µM) |  |  |  |  |  |
| C[C@@H](NC(=O)C(F)F)[C@H]1C(=O)N2C(C(=O)O)=C(S[C@@H]3CN[C@H](C(=O)N4CC[C@@H](F)C4)C3)[C@H](C)[C@H]12 [Example 210] |  |  |  |  |  | 2 (≈ 3.96 µM) | 4 (≈ 7.93 µM) | 4 (≈ 7.93 µM) | 64 (≈ 127 µM) | 1 (≈ 1.98 µM) |
| C[C@@H](NC(=O)C(F)F)[C@H]1C(=O)N2C(C(=O)O)=C(S[C@@H]3CN[C@H](C(=O)N4C[C@H](N)[C@@H](F)C4)C3)[C@H](C)[C@H]12 [Example 211] | 2 (≈ 3.85 µM) | 4 (≈ 7.7 µM) | 4 (≈ 7.7 µM) | 16 (≈ 30.8 µM) | 1 (≈ 1.92 µM) |  |  |  |  |  |
| C[C@@H](NC(=O)C(F)F)[C@H]1C(=O)N2C(C(=O)O)=C(S[C@@H]3CN[C@H](C(=O)N4C[C@@H](N)C[C@H]4CNS(N)(=O)=O)C3)[C@H](C)[C@H]12 [Example 212] | 1 (≈ 1.64 µM) | 4 (≈ 6.56 µM) | 2 (≈ 3.28 µM) | 8 (≈ 13.1 µM) | 0.5 (≈ 0.82 µM) |  |  |  |  |  |
| C[C@@H](NC(=O)C(F)F)[C@H]1C(=O)N2C(C(=O)O)=C(S[C@@H]3CN[C@H](C(=O)N4C[C@@H](O)[C@@H](N)C4)C3)[C@H](C)[C@H]12 [Example 213] | 1 (≈ 1.93 µM) | 4 (≈ 7.73 µM) | 2 (≈ 3.86 µM) | 8 (≈ 15.5 µM) | 0.5 (≈ 0.966 µM) |  |  |  |  |  |
| CNCC(=O)N[C@H](C)[C@H]1C(=O)N2C(C(=O)O)=C(S[C@@H]3CN[C@H](C(=O)N4CC[C@H](F)C4)C3)[C@H](C)[C@H]12 [Example 214] | 32 (≈ 64.3 µM) | 16 (≈ 32.2 µM) | 32 (≈ 64.3 µM) | > 128 | 4 (≈ 8.04 µM) |  |  |  |  |  |
